5 molecules from patent US4065575A, “3-Aminomethyl derivatives of 4-chromanone” (Joullie International, priority 1975, dated 1977) can be followed below.

Series [1] deals with mice. Put plainly: Acute toxicity in mice (LD 50). Type of series: in vivo. As to conditions: intravenous; in words. The protocol: (§1) The study is carried out on batches of 5 Swiss female mice of the NMRI Han. strain. The products are administered either intravenously (into the caudal vein) in solution in a 9 g..permill. sodium chloride solution, or orally (probang) in suspension in a 10% solution of gum arabic.
(§2) The animals are observed for the 15 days following the administration of the products.
(§3) The LD 50 values are calculated by the method of Karber and Behrens (Arch. Exp. Pathol. Pharm. 177, 1935, page 379).

The nature of series [2]: Cardiovascular action in dogs. Format: in vivo, male Beagle dogs. The protocol:
Male Beagle dogs weighing 9 to 12 kg. were anaesthetised by intrasaphenous injection of a 2% solution of chloralose in physiological solution, at a dose of 100 mg./kg.
The anaesthesia is maintained by slow perfusion of 5% pentobarbital (1.2 ml./hour).
The animals are tracheotomised and placed under assisted respiration by means of a Bird respirator. Their oxygenation and their acid-base equilibrium are controlled by determination of the pH, the pCO2 and the pO2 on blood samples taken from a collateral of the brachial artery (pH/gas analyser for blood, IL model 213/227).
The different parameters are recorded on a polygraph.

The test system of series [3] is hypertensive effects of electrical stimulation, adrenaline and noradrenaline. Description: α-Sympatholytic effects in amyeliated rats. The settings on record: for % variation of the hypertensive effects obtained with adrenaline: adrenaline 1.25 to 2.5 μg./kg.; for % variation of the hypertensive effects obtained with noradrenaline: noradrenaline 1.25 to 2.5 μg./kg. Format: in vivo. The source says: The α-sympatholytic effects of LJ 1052 and LJ 1053 are compared with those of isoxsuprine in amyeliated rats which have been prepared by a method derived from those of Shipley and Tilden (Proc. soc. Exp. Biol. Med. 1947, 64, 453-455) and of Gillespie and Muir (Br. J. Pharmac. Chemother. 1967, 30, 78-87).
The effects on the blood pressure of electrical stimulation of the thoracolumbar sympathic nerve (rectangular signals = voltage 20 to 40 volts; width 2 m. sec; frequency 10 secs.; duration 5 to 10 secs.) and of injections of adrenaline (1.25 to 2.5 μg./kg.) and of noradrenaline (1.25 to 2.5 μg./kg.) are determined before and after injection of the products tested.

The test system of series [4] is isolated auricle of a rabbit. Put plainly: Peripheral vasomotoricity, isolated and perfused auricle of a rabbit. The settings on record: for activation at 0.0001 mg / activation at 0.001 mg / activation at 0.01 mg / activation at 0.1 mg: Oryctolagus cuniculus, read-out: Maximum variations in the flow rate; for activation at 0.0001 mg: dose 0.1 μg.; for activation at 0.001 mg: dose 1 μg.; for activation at 0.01 mg: dose 10 μg.; for activation at 0.1 mg: dose 100 μg.; for peripheral vasodilatory action: in words; for duration of the effects / of the action: at the highest doses. The method, then: The flow rate of the liquid issuing from the veins is recorded by electronic contact on a polygraph. The products to be studied are injected at increasing doses into the perfusion tube and their actions are compared to that of isoxsuprine used as the reference substance.
The results, collected in Table No. III, are expressed in the maximum percentage increase of the flow rate at the various doses used.

Series [5] in a line: Acute toxicity in mice (LD 50). Type of series: in vivo. The settings on record: mouse, in vivo, mice, 15 days observation. The method, then: as §1, §2, §3
The mark [6] stands for this setting: 0.04 mg./kg. i.v. (1/1,000 LD 50).
Setting [7] is: 0.04 mg./kg. i.v. (1/1,000 LD 50), first or only phase.
Where [8] appears, read: 0.04 mg./kg. i.v. (1/1,000 LD 50), then.
[9] abbreviates: dose 50 g./kg. (so in the source).
The mark [10] stands for this setting: dose 100 g./kg. (so in the source).
The mark [11] stands for this setting: dose 500 g./kg. (so in the source).
Setting [12] is: 0.5 mg./kg. i.v. (1/50 LD 50), then.
Setting [13] is: 0.6 mg./kg. i.v. (1/50 LD 50), first phase.
Where [14] appears, read: 0.6 mg./kg. i.v. (1/50 LD 50), then.

Molecules are shown by their SMILES. “Also recorded” adds a separate entry of the source. Where a name gives a salt, the structure may show the parent alone.

`CC(COc1ccccc1)NC(C)C(O)c1ccc(O)cc1` (centres unmarked) [Isoxsuprine, reference compound]: the “intravenous LD 50 in mice (comparison of three products)” value in series [1] is reported as “practically identical”. Further, in series [2] (setting [6]), the “Diastolic AP, duration of action” value came out at 20 min; the “Diastolic AP, maximum per cent variation” value is on record as -62%; the “FF (mean flow rate of the femoral artery), maximum per cent variation” value (from here on “FF … per cent variation”) is “+63%”; the “FF, duration of action” value was found to be 30 min. In series [2] (setting [6]), the “Hb (heart beat), maximum per cent variation” value is given as “+13%”; the “Hb, duration of action” value came to 25 min; the “LVP, duration of action” value amounted to 5 min; the “Mean AP, duration of action” value worked out at 20 min. Moreover, in series [2] (setting [6]), the “Mean AP, maximum per cent variation” value is recorded as -50%; the “Systolic AP, duration of action” value worked out at 10 min; the “Systolic AP, maximum per cent variation” value is reported as “+13%”. Moreover, in series [2] (setting [7]), the “LVP (left ventricular pressure), maximum per cent variation” value is on record as -22% and the “dLVP/dt, maximum per cent variation” value was -18%. Also, in series [2] (setting [8]), the “dLVP/dt, duration of action, second phase ("then")” value (“dLVP/dt, duration … ("then")” below) amounted to 5 min and the “dLVP/dt, maximum per cent variation, second phase ("then")” value was “+12%”. Also, in series [3] (setting [9]), the “% variation of the hypertensive effects obtained with electrical stimulation” value (“% variation … with electrical stimulation” below) was -27%, the “% variation of the hypertensive effects obtained with adrenaline” value (shortened to “% variation … with adrenaline”) is on record as -69% and the “% variation of the hypertensive effects obtained with noradrenaline” value (“% variation … with noradrenaline” for short) is given as -36%. Moreover, in series [3] (setting [10]), the “% variation … with electrical stimulation” value is recorded as -25%, the “% variation … with adrenaline” value is recorded as -75% and the “% variation … with noradrenaline” value is -44%. For the same molecule, in series [3] (setting [11]), the “% variation … with electrical stimulation” value was -66%, the “% variation … with adrenaline” value is -100% and the “% variation … with noradrenaline” value is -67%. For the same molecule, in series [4], the activation at 0.0001 mg was found to be 38%, the activation at 0.001 mg was 61%, the activation at 0.01 mg was determined as 117% and the activation at 0.1 mg worked out at 175%.
As to `CCCNCC1COc2ccccc2C1=O` (centres unmarked) [LJ 1048, 3-(n-Propylaminomethyl)-4-chromanone hydrochloride], the LD50 at 360 h in series [5] (intravenous administration) was 36 mg/kg. The LD50 at 360 h in series [5] (oral administration) stood at 362 mg/kg. Further, in series [2] (0.7 mg./kg. i.v. (1/50 LD 50)), the “Hb (heart beat), maximum per cent variation” value is “+33%”; the “Hb, duration of action” value was over 60 min; the “LVP (left ventricular pressure), maximum per cent variation” value is listed as -21%; the “LVP, duration of action” value was found to be 30 min. In addition, in series [2] (0.7 mg./kg. i.v. (1/50 LD 50)), the “Mean AP, duration of action” value was over 60 min; the “Mean AP, maximum per cent variation” value is given as -38%; the “dLVP/dt, duration of action” value came to 60 min; the “dLVP/dt, maximum per cent variation” value was “+28%”. For the same molecule, in series [4], the activation at 0.0001 mg amounted to 22%, the activation at 0.001 mg worked out at 33%, the activation at 0.01 mg was determined as 33% and the activation at 0.1 mg turned out to be 29%. Moreover, in series [4], the peripheral vasodilatory action entry is on record as “low activity”.
Take `CCCCNCC1COc2ccccc2C1=O` (centres unmarked) [LJ 1049, 3-(n-Butylaminomethyl)-4-chromanone hydrochloride]: in series [5] (intravenous administration), the LD50 at 360 h stood at 24 mg/kg. This molecule registered an LD50 at 360 h in series [5] (oral administration) of 262 mg/kg. For the same molecule, in series [2] (0.5 mg./kg. i.v. (1/50 LD 50)), the “FF … per cent variation” value is “+34%”; the “FF, duration of action” value turned out to be 2 min; the “Hb (heart beat), maximum per cent variation” value was “+21%”; the “Hb, duration of action” value worked out at 40 min. In addition, in series [2] (0.5 mg./kg. i.v. (1/50 LD 50)), the “LVP (left ventricular pressure), maximum per cent variation” value is -19%; the “LVP, duration of action” value is 50 min; the “Mean AP, duration of action” value was found to be 10 min; the “Mean AP, maximum per cent variation” value is -15%. In series [2] (0.5 mg./kg. i.v. (1/50 LD 50), first phase), the “dLVP/dt, maximum per cent variation” value is on record as -10%. Besides, in series [2] (setting [12]), the “dLVP/dt, duration … ("then")” value is 10 min and the “dLVP/dt, maximum per cent variation, second phase ("then")” value is “+20%”. Also, in series [4], the activation at 0.0001 mg came out at 36%, the activation at 0.001 mg was 36%, the activation at 0.01 mg worked out at 115% and the activation at 0.1 mg was found to be 138%. Moreover, in series [4], the “duration of the effects / of the action” value is at least 30 min and the peripheral vasodilatory action result is “great”.
`COCCCNCC1COc2ccccc2C1=O` (centres unmarked) [LJ 1051, 3-(3-Methoxy-n-propylaminomethyl)-4-chromanone hydrochloride]: the LD50 at 360 h in series [5] (intravenous administration) amounted to 33 mg/kg. In series [5] (oral administration), this molecule came in with an LD50 at 360 h of 475 mg/kg. In series [2] (0.6 mg./kg. i.v. (1/50 LD 50)), the “LVP (left ventricular pressure), maximum per cent variation” value is -30%; the “LVP, duration of action” value was over 50 min; the “Mean AP, duration of action” value was over 50 min; the “Mean AP, maximum per cent variation” value is on record as -21%. In addition, in series [2] (0.6 mg./kg. i.v. (1/50 LD 50)), the “dLVP/dt, duration of action” value is over 50 min and the “dLVP/dt, maximum per cent variation” value is reported as -60%. Also, in series [2] (setting [13]), the “Hb (heart beat), maximum per cent variation” value is on record as “+20%” and the “Hb, duration of action” value was 3 min. Besides, in series [2] (setting [14]), the “Hb, duration of action, second phase ("then")” value is 40 min and the “Hb, maximum per cent variation, second phase ("then")” value was -16%. For the same molecule, in series [4], the activation at 0.0001 mg was found to be 0%, the activation at 0.001 mg was 36%, the activation at 0.01 mg was 100% and the “duration of the effects / of the action” value was at least 30 min. Besides, the peripheral vasodilatory action entry in series [4] is “great”.
Regarding `COCCCCNCC1COc2ccccc2C1=O` (centres unmarked) [LJ 1053, 3-(4-Methoxy-n-butylaminomethyl)-4-chromanone hydrochloride], in series [1], the “intravenous LD 50 in mice (comparison of three products)” value is recorded as “practically identical”. For the same molecule, the LD50 at 360 h in series [5] (intravenous administration) is 38 mg/kg. This molecule also displayed an LD50 at 360 h in series [5] (oral administration) of 285 mg/kg. Moreover, in series [2] (setting [6]), the “Diastolic AP, duration of action” value was 5 min; the “Diastolic AP, maximum per cent variation” value is given as -60%; the “FF … per cent variation” value is on record as “+104%”; the “FF, duration of action” value amounted to 3 min. In series [2] (setting [6]), the “Hb (heart beat), maximum per cent variation” value was “+23%”; the “Hb, duration of action” value was over 30 min; the “LVP, duration of action” value is over 10 min; the “Mean AP, duration of action” value was determined as 5 min. In addition, in series [2] (setting [6]), the “Mean AP, maximum per cent variation” value is reported as -45%; the “Systolic AP, duration of action” value came to 15 min; the “Systolic AP, maximum per cent variation” value was “+23%”. For the same molecule, in series [2] (setting [7]), the “LVP (left ventricular pressure), maximum per cent variation” value was -17% and the “dLVP/dt, maximum per cent variation” value was -12%. Further, in series [2] (setting [8]), the “dLVP/dt, duration … ("then")” value was over 10 min and the “dLVP/dt, maximum per cent variation, second phase ("then")” value was “+25%”. Besides, in series [3] (setting [9]), the “% variation … with electrical stimulation” value is on record as -11%, the “% variation … with adrenaline” value was -18% and the “% variation … with noradrenaline” value is reported as -12%. In series [3] (setting [10]), the “% variation … with electrical stimulation” value was -55%, the “% variation … with adrenaline” value is -47% and the “% variation … with noradrenaline” value is reported as -41%. Further, in series [4], the activation at 0.0001 mg worked out at 23%, the activation at 0.001 mg turned out to be 92%, the activation at 0.01 mg amounted to 133% and the activation at 0.1 mg is 183%. The “duration of the effects / of the action” value in series [4] was at least 30 min. In series [4] (hydrochloride), the peripheral vasodilatory action result is reported as “great; also recorded: as active as isoxsuprine”.
